ChEMBL document CHEMBL1201862, “PubChem BioAssay data set” (2004)
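Cells were grown in 96-well plates and exposed to each compound for 48 hours at five concentrations; endpoints were interpolated linearly between bracketing concentrations, or set to the highest concentration if not reached. Abbreviation: GI50, concentration required for 50% inhibition of growth.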 The source made the active and inactive calls. Rule as the data show it: active = GI50 up to about 1.1 µM and inactive = higher.

How the values were obtained:
Assay in all cases: DTP human tumour cell line panel, 48 h
LOX IMVI = tested on: LOX IMVI
OVCAR-5 = tested on: OVCAR-5
OVCAR-3 = tested on: OVCAR-3
NCI-H226 = tested on: NCI-H226
SK-MEL-28 = tested on: SK-MEL-28
A549 = tested on: A549
NCI-H522 = tested on: NCI-H522
SK-MEL-5 = tested on: SK-MEL-5
DU-145 = tested on: DU-145
UO-31 = tested on: UO-31
K562 = tested on: K562
HL-60 = tested on: HL-60
SF-295 = tested on: SF-295
SW-620 = tested on: SW-620
NCI/ADR-RES = tested on: NCI/ADR-RES
MCF7 = tested on: MCF7
SK-MEL-2 = tested on: SK-MEL-2
OVCAR-8 = tested on: OVCAR-8
Malme-3M = tested on: Malme-3M

Measured: GI50

CS(=O)(=O)OCCCCOS(=O)(=O)CF
inactive: LOX IMVI > 100 µM | OVCAR-5 > 100 µM | OVCAR-3 > 100 µM | NCI-H226 > 100 µM | SK-MEL-28 > 100 µM | A549 > 100 µM | NCI-H522 > 100 µM | SK-MEL-5 > 100 µM | DU-145 > 100 µM | UO-31 > 100 µM | K562 > 100 µM | HL-60 33.5 µM | SF-295 > 100 µM | SW-620 > 100 µM | NCI/ADR-RES > 100 µM | MCF7 > 95.1 µM | SK-MEL-2 > 100 µM | OVCAR-8 > 100 µM | Malme-3M > 46.5 µM

Cc1cccc(NC(=O)O/N=C(\Cl)C(C)C)c1
inactive: LOX IMVI 1.83 µM | OVCAR-5 19.4 µM | OVCAR-3 6.15 µM | NCI-H226 18.6 µM | SK-MEL-28 7.19 µM | A549 20.5 µM | NCI-H522 1.54 µM | SK-MEL-5 16.4 µM | DU-145 18.6 µM | UO-31 16.6 µM | K562 2.31 µM | HL-60 1.94 µM | SF-295 17.5 µM | SW-620 2.19 µM | NCI/ADR-RES 21.3 µM | MCF7 10 µM | SK-MEL-2 17.7 µM | OVCAR-8 19.4 µM | Malme-3M 2.19 µM

COc1cc2c(cc1OC)C1(c3ccccc3)CN(C2)Cc2cc(OC)c(OC)cc21
inactive: LOX IMVI 34.8 µM | OVCAR-5 35.6 µM | OVCAR-3 54.6 µM | NCI-H226 26.7 µM | SK-MEL-28 > 100 µM | A549 46.3 µM | NCI-H522 26.2 µM | SK-MEL-5 18.6 µM | DU-145 33.7 µM | UO-31 80.9 µM | K562 29.1 µM | HL-60 19.3 µM | SF-295 32.6 µM | SW-620 33.6 µM | NCI/ADR-RES 25.4 µM | MCF7 33.3 µM | SK-MEL-2 25.7 µM | OVCAR-8 40.6 µM | Malme-3M 36.4 µM

Nc1nn2c(nc(N)c3c(N)n[nH]c32)c1/N=N\c1ccc(Br)cc1
inactive: LOX IMVI 2.88 µM | OVCAR-5 23.7 µM | OVCAR-3 32.6 µM | NCI-H226 55 µM | SK-MEL-28 7.73 µM | A549 > 100 µM | NCI-H522 27.5 µM | SK-MEL-5 > 100 µM | DU-145 > 100 µM | UO-31 > 100 µM | K562 2.16 µM | HL-60 8.15 µM | SF-295 > 100 µM | SW-620 43.7 µM | NCI/ADR-RES > 100 µM | MCF7 > 100 µM | SK-MEL-2 12.3 µM | OVCAR-8 21 µM | Malme-3M 4.42 µM

NC(=O)CCSC(CC(=O)c1ccc(Cl)cc1)c1ccc(Cl)cc1 (configuration not stated)
inactive: LOX IMVI 12.1 µM | OVCAR-5 32.7 µM | OVCAR-3 19.2 µM | NCI-H226 36 µM | SK-MEL-28 28.4 µM | A549 29.9 µM | NCI-H522 23.2 µM | SK-MEL-5 17.2 µM | DU-145 27.5 µM | UO-31 26.7 µM | K562 7.1 µM | HL-60 6.97 µM | SF-295 25.2 µM | SW-620 3.08 µM | NCI/ADR-RES 22.8 µM | MCF7 5.08 µM | SK-MEL-2 24.3 µM | OVCAR-8 16.3 µM | Malme-3M 24.9 µM

CCC(C)C1=C(O)[N+]2([O-])Oc3ccc(-c4c(O)c(O)c(-c5ccc(O)cc5)c(OC(C)=O)c4OC(C)=O)cc3OC2(C(C)CC)C(=O)N1O (configuration not stated)
inactive: LOX IMVI 17.6 µM | OVCAR-5 > 50 µM | OVCAR-3 > 50 µM | NCI-H226 > 50 µM | SK-MEL-28 > 50 µM | A549 > 50 µM | NCI-H522 23.5 µM | SK-MEL-5 > 50 µM | DU-145 > 50 µM | UO-31 > 50 µM | K562 35.4 µM | HL-60 > 50 µM | SF-295 > 50 µM | SW-620 > 50 µM | NCI/ADR-RES > 50 µM | MCF7 > 50 µM | SK-MEL-2 > 50 µM | OVCAR-8 > 50 µM | Malme-3M > 50 µM

C=C(C)C[C@H](Sc1nc2ccccc2s1)[C@H](C)O
inactive: LOX IMVI 39.4 µM | OVCAR-5 65.8 µM | OVCAR-3 18.8 µM | NCI-H226 22.5 µM | SK-MEL-28 41.4 µM | A549 50.5 µM | NCI-H522 23.8 µM | SK-MEL-5 18.1 µM | DU-145 88.1 µM | UO-31 69 µM | K562 33.7 µM | HL-60 18.9 µM | SF-295 39.5 µM | SW-620 45.4 µM | NCI/ADR-RES 33 µM | MCF7 38.3 µM | SK-MEL-2 23.1 µM | OVCAR-8 34.3 µM | Malme-3M 25.6 µM

CC(=O)NCCc1c[nH]c2ccc(Cl)cc12
inactive: LOX IMVI > 100 µM | OVCAR-5 > 100 µM | OVCAR-3 > 100 µM | NCI-H226 > 100 µM | SK-MEL-28 > 100 µM | A549 > 100 µM | NCI-H522 91 µM | SK-MEL-5 > 100 µM | DU-145 > 100 µM | UO-31 > 100 µM | K562 > 100 µM | HL-60 > 100 µM | SF-295 > 100 µM | SW-620 > 100 µM | NCI/ADR-RES > 100 µM | MCF7 > 100 µM | SK-MEL-2 > 100 µM | OVCAR-8 > 100 µM | Malme-3M > 100 µM
